Values after ≈ are worked out from the molar mass of the structure shown.

Type in all cases: functional
Test [1] has as its system Bacillus subtilis. Description: Antibacterial activity against Bacillus subtilis ATCC 9372 after 2 days by broth dilution method. The settings on record: ATCC 9372, 48 h.
The subject of test [2] is Corynebacterium ammoniagenes. Description: Antibacterial activity against Brevibacterium ammoniagenes ATCC 6872 after 2 days by broth dilution method. The settings on record: ATCC 6872, 48 h. (In general: In broth dilution the organism is exposed to a series of concentrations in liquid medium.)
Test [3] has as its system Staphylococcus aureus. As to the kind of experiment: Antibacterial activity against Staphylococcus aureus ATCC 12598 after 2 days by broth dilution method. The settings on record: ATCC 12598, 48 h.
For test [4], the system named is Streptococcus mutans. As to the kind of experiment: Antibacterial activity against Streptococcus mutans ATCC […] after 2 days by broth dilution method. The settings on record: 48 h.
The test system of test [5] is Cutibacterium acnes. Description: Antibacterial activity against Propionibacterium acnes ATCC 11827 after 2 days by broth dilution method. The following applies: ATCC 11827, 48 h.
The test system of test [6] is Escherichia coli. As to the kind of experiment: Antibacterial activity against Escherichia coli ATCC 9637 after 2 days by broth dilution method. The following applies: ATCC 9637, 48 h.
In test [7] the test system is Pseudomonas aeruginosa. As to the kind of experiment: Antibacterial activity against Pseudomonas aeruginosa ATCC 10145 after 2 days by broth dilution method. The settings on record: ATCC 10145, 48 h.
In test [8] the test system is Klebsiella aerogenes. As to the kind of experiment: Antibacterial activity against Enterobacter aerogenes ATCC 13048 after 2 days by broth dilution method. The following applies: ATCC 13048, 48 h.
Test [9] relates to Saccharomyces cerevisiae. As to the kind of experiment: Antifungal activity against Saccharomyces cerevisiae ATCC 7754 after 2 days by broth dilution method. The following applies: ATCC 7754, 48 h.
Test [10] relates to Cyberlindnera jadinii. As to the kind of experiment: Antifungal activity against Candida utilis ATCC 9226 after 2 days by broth dilution method. The following applies: Williopsis jadinii, ATCC 9226, 48 h.
The subject of test [11] is Proteus vulgaris. Description: Antibacterial activity against Proteus vulgaris ATCC 13315 after 2 days by broth dilution method. The following applies: ATCC 13315, 48 h.
In test [12] the test system is Malassezia. Description: Antifungal activity against Pityrosporum ovale ATCC 14521 after 3 days by broth dilution method. The settings on record: ATCC 14521, 72 h.
For test [13], the system named is Penicillium chrysogenum. Description: Antifungal activity against Penicillium chrysogenum ATCC 10106 after 5 days by broth dilution method. The following applies: ATCC 10106, 120 h.
In test [14] the test system is Trichophyton mentagrophytes. As to the kind of experiment: Antifungal activity against Trichophyton mentagrophytes ATCC 18748 after 5 days by broth dilution method. The settings on record: ATCC 18748, 120 h.

In the case of `CCCCCC/C=C/C=O` [2-NONENAL], the MIC came out at 50 µg/mL (≈ 357 µM) in test [1]; 100 µg/mL (≈ 713 µM) in test [2]; 50 µg/mL (≈ 357 µM) in [3]; 100 µg/mL (≈ 713 µM) in test [4]; 25 µg/mL (≈ 178 µM) in test [5]; 200 µg/mL (≈ 1430 µM) in test [6]. The MIC is over 800 µg/mL in test [7]; 200 µg/mL (≈ 1430 µM) in [8]; 25 µg/mL (≈ 178 µM) in test [9]; 25 µg/mL (≈ 178 µM) in [10]; 25 µg/mL (≈ 178 µM) in test [11]; 25 µg/mL (≈ 178 µM) in [12]. Also, the minimal inhibitory concentration (MIC) in test [13] amounted to 50 µg/mL (≈ 357 µM); in test [14], 12.5 µg/mL (≈ 89.1 µM).
Turning to `CC(C)=CC=O` [3-METHYL-(E)-2-BUTENAL], the MIC in test [1] was 800 µg/mL (≈ 9510 µM); in [2], over 800 µg/mL; in test [3] it was over 800 µg/mL; in test [4], over 800 µg/mL; in test [5], 800 µg/mL (≈ 9510 µM); in test [6], over 800 µg/mL. The MIC in test [7] is over 800 µg/mL; in [8], over 800 µg/mL; in [9], 800 µg/mL (≈ 9510 µM); in [10], 800 µg/mL (≈ 9510 µM); in test [11] it was 800 µg/mL (≈ 9510 µM); in test [12], 200 µg/mL (≈ 2380 µM). In addition, the MIC in [13] came out at 50 µg/mL (≈ 594 µM); in test [14], 200 µg/mL (≈ 2380 µM).
With `CCCCCC=O` [HEXANAL], the minimal inhibitory concentration (MIC) was over 800 µg/mL in [1]; over 800 µg/mL in test [2]; over 800 µg/mL in test [3]; over 800 µg/mL in [4]; 800 µg/mL (≈ 7990 µM) in [5]; over 800 µg/mL in [6]. Moreover, the minimum inhibitory concentration (MIC) in test [7] is over 800 µg/mL; in test [8], over 800 µg/mL; in test [9] it was over 800 µg/mL; in test [10], over 800 µg/mL; in [11], over 800 µg/mL; in test [12], 800 µg/mL (≈ 7990 µM). Moreover, the MIC in [13] and in test [14] was over 800 µg/mL each time.
Regarding `CCCCCC(=O)O` [HEXANOATE], the minimum inhibitory concentration (MIC) is 200 µg/mL (≈ 1720 µM) in [1]; 400 µg/mL (≈ 3440 µM) in [2]; over 800 µg/mL in [3]; over 800 µg/mL in [4]; 400 µg/mL (≈ 3440 µM) in test [5]; over 800 µg/mL in test [6]. The MIC is over 800 µg/mL in test [7]; over 800 µg/mL in test [8]; 400 µg/mL (≈ 3440 µM) in test [9]; 400 µg/mL (≈ 3440 µM) in test [10]; 400 µg/mL (≈ 3440 µM) in test [11]; 400 µg/mL (≈ 3440 µM) in test [12]. The minimal inhibitory concentration (MIC) in [13] amounted to 400 µg/mL (≈ 3440 µM); in test [14] it was 100 µg/mL (≈ 861 µM).
Regarding `CCCCCCCC(=O)O` [OCTANOIC ACID], the minimum inhibitory concentration (MIC) in test [1] is 200 µg/mL (≈ 1390 µM); in [2] it was 400 µg/mL (≈ 2770 µM); in [3], 400 µg/mL (≈ 2770 µM); in test [4], 1600 µg/mL (≈ 11100 µM); in test [5], 200 µg/mL (≈ 1390 µM); in [6], over 800 µg/mL. Besides, the MIC in [7] was over 800 µg/mL; in test [8], over 800 µg/mL; in test [9], 200 µg/mL (≈ 1390 µM); in test [10] it was 200 µg/mL (≈ 1390 µM); in [11], 200 µg/mL (≈ 1390 µM); in test [12], 200 µg/mL (≈ 1390 µM). Moreover, the minimum inhibitory concentration (MIC) came to 100 µg/mL (≈ 693 µM) in test [13] and 50 µg/mL (≈ 347 µM) in test [14].
Regarding `CCCCCCC/C=C/C=O` [TRANS-2-DECENAL], the MIC is 25 µg/mL (≈ 162 µM) in test [1]; 50 µg/mL (≈ 324 µM) in test [2]; 25 µg/mL (≈ 162 µM) in test [3]; 100 µg/mL (≈ 648 µM) in test [4]; 12.5 µg/mL (≈ 81 µM) in test [5]; over 800 µg/mL in test [6]. The MIC in [7] was over 800 µg/mL; in [8], over 800 µg/mL; in test [9], 25 µg/mL (≈ 162 µM); in [10] it was 25 µg/mL (≈ 162 µM); in [11] it was 25 µg/mL (≈ 162 µM); in test [12], 25 µg/mL (≈ 162 µM). Moreover, the minimal inhibitory concentration (MIC) was determined as 12.5 µg/mL (≈ 81 µM) in test [13] and 3.13 µg/mL (≈ 20.3 µM) in test [14].

The MIC is the lowest concentration found to suppress growth.

The record behind these values is ChEMBL document CHEMBL1150081, “Antimicrobial Agents from Tanacetum balsamita” (1995).
